# Source: the CheMixHub viscosity set
# ± gives the uncertainty stated by the source.
# Test: xn = mol fraction of the nth substance listed
smiles,measurement,setting,value
Nc1cccc(Cl)c1 + O=C1CCCCC1,viscosity,"303.15 K, 100 kPa, x1 = 0.0814",1.954 ± 0.1 mPa·s
same,viscosity,"303.15 K, 100 kPa, x1 = 0.1705",2.11 ± 0.1 mPa·s
same,viscosity,"303.15 K, 100 kPa, x1 = 0.2826",2.323 ± 0.1 mPa·s
same,viscosity,"303.15 K, 100 kPa, x1 = 0.3886",2.542 ± 0.1 mPa·s
same,viscosity,"303.15 K, 100 kPa, x1 = 0.4996",2.793 ± 0.1 mPa·s
same,viscosity,"303.15 K, 100 kPa, x1 = 0.5895",3.014 ± 0.1 mPa·s
same,viscosity,"303.15 K, 100 kPa, x1 = 0.6899",3.28 ± 0.1 mPa·s
same,viscosity,"303.15 K, 100 kPa, x1 = 0.7755",3.525 ± 0.1 mPa·s
same,viscosity,"303.15 K, 100 kPa, x1 = 0.8882",3.875 ± 0.1 mPa·s
same,viscosity,"308.15 K, 100 kPa, x1 = 0.0814",1.779 ± 0.1 mPa·s
same,viscosity,"308.15 K, 100 kPa, x1 = 0.1705",1.92 ± 0.1 mPa·s
same,viscosity,"308.15 K, 100 kPa, x1 = 0.2826",2.112 ± 0.1 mPa·s
same,viscosity,"308.15 K, 100 kPa, x1 = 0.3886",2.31 ± 0.1 mPa·s
same,viscosity,"308.15 K, 100 kPa, x1 = 0.4996",2.535 ± 0.1 mPa·s
same,viscosity,"308.15 K, 100 kPa, x1 = 0.5895",2.733 ± 0.1 mPa·s
same,viscosity,"308.15 K, 100 kPa, x1 = 0.6899",2.971 ± 0.1 mPa·s
same,viscosity,"308.15 K, 100 kPa, x1 = 0.7755",3.191 ± 0.1 mPa·s
same,viscosity,"308.15 K, 100 kPa, x1 = 0.8882",3.503 ± 0.1 mPa·s
same,viscosity,"313.15 K, 100 kPa, x1 = 0.0814",1.589 ± 0.1 mPa·s
same,viscosity,"313.15 K, 100 kPa, x1 = 0.1705",1.716 ± 0.1 mPa·s
same,viscosity,"313.15 K, 100 kPa, x1 = 0.2826",1.888 ± 0.1 mPa·s
same,viscosity,"313.15 K, 100 kPa, x1 = 0.3886",2.065 ± 0.1 mPa·s
same,viscosity,"313.15 K, 100 kPa, x1 = 0.4996",2.266 ± 0.1 mPa·s
same,viscosity,"313.15 K, 100 kPa, x1 = 0.5895",2.442 ± 0.1 mPa·s
same,viscosity,"313.15 K, 100 kPa, x1 = 0.6899",2.655 ± 0.1 mPa·s
same,viscosity,"313.15 K, 100 kPa, x1 = 0.7755",2.85 ± 0.1 mPa·s
same,viscosity,"313.15 K, 100 kPa, x1 = 0.8882",3.128 ± 0.1 mPa·s
same,viscosity,"318.15 K, 100 kPa, x1 = 0.0814",1.382 ± 0.1 mPa·s
same,viscosity,"318.15 K, 100 kPa, x1 = 0.1705",1.495 ± 0.1 mPa·s
same,viscosity,"318.15 K, 100 kPa, x1 = 0.2826",1.648 ± 0.1 mPa·s
same,viscosity,"318.15 K, 100 kPa, x1 = 0.3886",1.805 ± 0.1 mPa·s
same,viscosity,"318.15 K, 100 kPa, x1 = 0.4996",1.984 ± 0.1 mPa·s
same,viscosity,"318.15 K, 100 kPa, x1 = 0.5895",2.141 ± 0.1 mPa·s
same,viscosity,"318.15 K, 100 kPa, x1 = 0.6899",2.33 ± 0.1 mPa·s
same,viscosity,"318.15 K, 100 kPa, x1 = 0.7755",2.505 ± 0.1 mPa·s
same,viscosity,"318.15 K, 100 kPa, x1 = 0.8882",2.753 ± 0.1 mPa·s
CC(=O)CCC(=O)O + O=C(O)[C@@H]1CCCN1,viscosity,"303.15 K, 100 kPa, x1 = 0.667",955 ± 130 mPa·s
same,viscosity,"308.15 K, 100 kPa, x1 = 0.667",636.1 ± 81 mPa·s
same,viscosity,"313.15 K, 100 kPa, x1 = 0.667",432.5 ± 52 mPa·s
same,viscosity,"318.15 K, 100 kPa, x1 = 0.667",301 ± 34 mPa·s
same,viscosity,"323.15 K, 100 kPa, x1 = 0.667",219.6 ± 24 mPa·s
CCCCCCCCCCCCCC[P+](CCCCCC)(CCCCCC)CCCCCC.c1c[n-]nn1 + O=C=O,viscosity,"298.15 K, 100 kPa, x2 = 0.38",419 ± 17 mPa·s
CCCCN(CCO)CCCC + O=S=O,viscosity,"303.15 K, 100 kPa, x2 = 0.17",19.3 mPa·s
same,viscosity,"303.15 K, 100 kPa, x2 = 0.33",198.3 mPa·s
same,viscosity,"303.15 K, 100 kPa, x2 = 0.45",2527 mPa·s
CCC(=O)O + O=[N+]([O-])c1ccccc1,viscosity,"298.15 K, 101 kPa, x1 = 0.1311",1.763 ± 0.013 mPa·s
same,viscosity,"298.15 K, 101 kPa, x1 = 0.2535",1.711 ± 0.013 mPa·s
same,viscosity,"298.15 K, 101 kPa, x1 = 0.3679",1.663 ± 0.013 mPa·s
same,viscosity,"298.15 K, 101 kPa, x1 = 0.4752",1.612 ± 0.012 mPa·s
same,viscosity,"298.15 K, 101 kPa, x1 = 0.5759",1.551 ± 0.012 mPa·s
same,viscosity,"298.15 K, 101 kPa, x1 = 0.6708",1.478 ± 0.011 mPa·s
same,viscosity,"298.15 K, 101 kPa, x1 = 0.7601",1.392 ± 0.011 mPa·s
same,viscosity,"298.15 K, 101 kPa, x1 = 0.8445",1.291 ± 0.01 mPa·s
same,viscosity,"298.15 K, 101 kPa, x1 = 0.9244",1.175 ± 0.0092 mPa·s
same,viscosity,"308.15 K, 101 kPa, x1 = 0.1311",1.469 ± 0.011 mPa·s
same,viscosity,"308.15 K, 101 kPa, x1 = 0.2535",1.452 ± 0.011 mPa·s
same,viscosity,"308.15 K, 101 kPa, x1 = 0.3679",1.428 ± 0.011 mPa·s
same,viscosity,"308.15 K, 101 kPa, x1 = 0.4752",1.394 ± 0.011 mPa·s
same,viscosity,"308.15 K, 101 kPa, x1 = 0.5759",1.346 ± 0.01 mPa·s
same,viscosity,"308.15 K, 101 kPa, x1 = 0.6708",1.285 ± 0.01 mPa·s
same,viscosity,"308.15 K, 101 kPa, x1 = 0.7601",1.21 ± 0.0095 mPa·s
same,viscosity,"308.15 K, 101 kPa, x1 = 0.8445",1.121 ± 0.0088 mPa·s
same,viscosity,"308.15 K, 101 kPa, x1 = 0.9244",1.019 ± 0.0081 mPa·s
same,viscosity,"318.15 K, 101 kPa, x1 = 0.1311",1.35 ± 0.01 mPa·s
same,viscosity,"318.15 K, 101 kPa, x1 = 0.2535",1.42 ± 0.011 mPa·s
same,viscosity,"318.15 K, 101 kPa, x1 = 0.3679",1.421 ± 0.011 mPa·s
same,viscosity,"318.15 K, 101 kPa, x1 = 0.4752",1.376 ± 0.011 mPa·s
same,viscosity,"318.15 K, 101 kPa, x1 = 0.5759",1.301 ± 0.01 mPa·s
same,viscosity,"318.15 K, 101 kPa, x1 = 0.6708",1.207 ± 0.0095 mPa·s
same,viscosity,"318.15 K, 101 kPa, x1 = 0.7601",1.106 ± 0.0087 mPa·s
same,viscosity,"318.15 K, 101 kPa, x1 = 0.8445",1.002 ± 0.008 mPa·s
same,viscosity,"318.15 K, 101 kPa, x1 = 0.9244",0.9012 ± 0.0072 mPa·s
Nc1cccc(Cl)c1 + O=[N+]([O-])c1ccccc1,viscosity,"303.15 K, 100 kPa, x1 = 0.7825",3.915 ± 0.1 mPa·s
same,viscosity,"318.15 K, 100 kPa, x1 = 0.5896",2.615 ± 0.1 mPa·s
same,viscosity,"318.15 K, 100 kPa, x1 = 0.6785",2.755 ± 0.1 mPa·s
OC[C@@H](O)[C@@H](O)CO + OC[C@@H](O)[C@H](O)[C@@H](O)CO,viscosity,"313 K, 101 kPa, x1 = 0.36",31330 mPa·s
same,viscosity,"318 K, 101 kPa, x1 = 0.36",18000 mPa·s
same,viscosity,"323 K, 101 kPa, x1 = 0.36",10110 mPa·s
[F-].[Na+] + [2H]O[2H],viscosity,"298.15 K, 101 kPa, x1 = 0.0054",1.159 ± 0.013 mPa·s
same,viscosity,"298.15 K, 101 kPa, x1 = 0.0122",1.246 ± 0.014 mPa·s
same,viscosity,"298.15 K, 101 kPa, x1 = 0.0163",1.326 ± 0.015 mPa·s
same,viscosity,"308.15 K, 101 kPa, x1 = 0.0054",0.913 ± 0.01 mPa·s
same,viscosity,"308.15 K, 101 kPa, x1 = 0.0122",0.98 ± 0.011 mPa·s
same,viscosity,"308.15 K, 101 kPa, x1 = 0.0163",1.043 ± 0.012 mPa·s
same,viscosity,"318.15 K, 101 kPa, x1 = 0.0054",0.747 ± 0.008 mPa·s
same,viscosity,"318.15 K, 101 kPa, x1 = 0.0122",0.8 ± 0.009 mPa·s
same,viscosity,"318.15 K, 101 kPa, x1 = 0.0163",0.857 ± 0.01 mPa·s
[K+].[O]=[Mn](=[O])(=[O])[O-] + [2H]O[2H],viscosity,"298.15 K, 101 kPa, x1 = 0.0021",1.101 ± 0.009 mPa·s
same,viscosity,"298.15 K, 101 kPa, x1 = 0.0034",1.092 ± 0.009 mPa·s
same,viscosity,"298.15 K, 101 kPa, x1 = 0.0052",1.079 ± 0.009 mPa·s
same,viscosity,"298.15 K, 101 kPa, x1 = 0.0062",1.082 ± 0.009 mPa·s
same,viscosity,"308.15 K, 101 kPa, x1 = 0.0021",0.873 ± 0.007 mPa·s
same,viscosity,"308.15 K, 101 kPa, x1 = 0.0034",0.861 ± 0.007 mPa·s
same,viscosity,"308.15 K, 101 kPa, x1 = 0.0052",0.853 ± 0.007 mPa·s
same,viscosity,"308.15 K, 101 kPa, x1 = 0.0062",0.85 ± 0.007 mPa·s
same,viscosity,"318.15 K, 101 kPa, x1 = 0.0021",0.717 ± 0.006 mPa·s
same,viscosity,"318.15 K, 101 kPa, x1 = 0.0034",0.709 ± 0.006 mPa·s
same,viscosity,"318.15 K, 101 kPa, x1 = 0.0052",0.703 ± 0.006 mPa·s
same,viscosity,"318.15 K, 101 kPa, x1 = 0.0062",0.704 ± 0.006 mPa·s
CCCC[n+]1ccccc1.[Cl][Al-]([Cl])([Cl])[Cl] + [Al+3].[Cl-].[Cl-].[Cl-],viscosity,"293.15 K, 101 kPa, x2 = 0.46",29.8 ± 1.3 mPa·s
same,viscosity,"293.15 K, 101 kPa, x2 = 0.57",29 ± 1.3 mPa·s
same,viscosity,"298.15 K, 101 kPa, x2 = 0.46",26.4 ± 1.1 mPa·s
same,viscosity,"298.15 K, 101 kPa, x2 = 0.57",25.2 ± 1.1 mPa·s
same,viscosity,"303.15 K, 101 kPa, x2 = 0.46",22.8 ± 1 mPa·s
same,viscosity,"303.15 K, 101 kPa, x2 = 0.57",22.1 ± 1 mPa·s
same,viscosity,"308.15 K, 101 kPa, x2 = 0.46",19.9 ± 0.9 mPa·s
same,viscosity,"308.15 K, 101 kPa, x2 = 0.57",19.9 ± 0.9 mPa·s
same,viscosity,"313.15 K, 101 kPa, x2 = 0.46",17.6 ± 0.8 mPa·s
same,viscosity,"313.15 K, 101 kPa, x2 = 0.57",17.6 ± 0.8 mPa·s
same,viscosity,"318.15 K, 101 kPa, x2 = 0.46",15.8 ± 0.7 mPa·s
same,viscosity,"318.15 K, 101 kPa, x2 = 0.57",15.6 ± 0.7 mPa·s
same,viscosity,"323.15 K, 101 kPa, x2 = 0.46",13.8 ± 0.6 mPa·s
same,viscosity,"323.15 K, 101 kPa, x2 = 0.57",14.2 ± 0.6 mPa·s
